| SMILES | melting point [°C] |
| --- | --- |
| NC(=O)NC(=O)OCCCCl | 165 to 167 |
| COC(=O)c1cc(=O)c2cc(Cl)ccc2[nH]1 | 179 to 181 |
| O=c1[nH]ccc2ccn(Cc3ccccc3)c12 | 177 to 179 |
| O=C(O)c1ccc(Oc2cccc(F)c2)cc1 | 146 to 148 |
| Cc1cc(C(=O)O)nc2nc(O)[nH]c(=O)c12 | 266 to 268 |
| CN1C(=O)CNC1=O | 177 to 179 |
| O=C(O)c1nc[nH]n1 | 132 to 136 |
| COCCn1nnc(C(=O)O)c1C(F)(F)F | 55 to 57 |
| Nc1ccccc1S(=O)(=O)C(F)(F)F | 47 to 49 |
| CC(C)(C)C(N)CN1CCc2ccccc2C1 (stereo not given) | 62 to 64 |
| N#Cc1cc(C(F)(F)F)ccc1S(=O)(=O)Cl | 87 to 89 |
| O=C(O)c1cnn(-c2ccc(Br)cc2)c1 | 254 to 256 |
| CC(C)n1ncc2cc(S(=O)(=O)Cl)ccc21 | 88 to 90 |
| O=c1oc2ccc(O)cc2s1 | 171 to 173 |
| Nc1cc(-c2ccsc2)no1 | 89 to 91 |
| NNC(=O)CN1C(=O)COc2ccccc21 | 152 to 154 |
| Nc1ccc(N2CCc3ccccc32)cc1C(=O)O | 189 to 191 |
| COC(=O)c1c(N)sc(C)c1-c1ccc(Cl)cc1Cl | 94 to 96 |
| CCOc1ccc(-c2nc(CCl)co2)cc1 | 102 to 104 |
| Cc1cc(C(=O)CCC(=O)O)c(C)s1 | 105 to 108 |
| CC(C)(C)OC(=O)N1CCN(C(=O)C2CCCNC2)CC1 (stereo not given) | 119 to 121 |
| CCN(CC)C(=O)N1CCCC(C(=O)O)C1 (stereo not given) | 94 to 96 |
| NS(=O)(=O)C1CCNC1 (stereo not given) | 115 to 117 |
| CCn1cc(S(N)(=O)=O)cn1 | 86 to 88 |
| O=C(O)c1cccc(S(=O)(=O)N2CCCCCC2)c1 | 173 to 175 |
| Cc1cc(C(=O)O)c2ccc(Br)cc2n1 | 289 to 291 |
| O=C(Nc1cccc(Br)c1)c1cccc(S(=O)(=O)N2CCCCCC2)c1 | 149 to 151 |
| Nc1ccccc1Cc1nc(-c2ccsc2)no1 | 118 to 120 |

| SMILES | melting point [°C] |
| --- | --- |
| O=C(Nc1ccc(O)cc1)c1ccsc1 | 207 to 209 |
| Cc1ccc(-c2nc(C)c(C(=O)O)s2)o1 | 215 to 217 |
| NC(=S)C1CN(Cc2ccccc2)CCO1 (stereo not given) | 90 to 92 |
| COc1nc2sccn2c1C=O | 130 to 132 |
| NC(=O)c1cc(F)ccc1N | 143 to 145 |
| NC(=O)c1ccc(N)cc1Cl | 163 to 165 |
| Cc1cc(C)c(Nc2nnc(S)s2)c(Cl)c1 | 198 to 200 |
| O=C(O)C1CCCN(C(=O)Nc2ccccc2)C1 (stereo not given) | 163 to 165 |
| O=C(O)c1cccnc1Oc1ccccc1Br | 166 to 168 |
| CON(C)S(=O)(=O)c1ccc(Cl)c(C(=O)O)c1 | 184 to 186 |
| CCNC(=O)COc1cccc(C(C)N)c1 (stereo not given) | 79 to 81 |
| Cn1c(=O)[nH]c(=O)c2[nH]c(CCC(=O)O)nc21 | 322 to 324 |
| ClCc1ccc(-n2cccn2)cc1 | 57 to 59 |
| Cc1cc[nH]c(=O)c1C(N)=O | 235 to 237 |
| CS(=O)(=O)Nc1cccc(Br)c1 | 113 to 115 |
| O=C(O)c1cc(NS(=O)(=O)c2cc([N+](=O)[O-])ccc2Cl)ccc1O | 43 to 45 |
| Nc1ccc(CC2CC(=O)NC2=O)cc1 (stereo not given) | 138 to 140 |
| NC(=S)C1(NC(=O)c2ccccc2)CCCC1 | 189 to 191 |
| Cc1occc1-c1nnc(S)n1C | 118 to 120 |
| COCc1nc2cc(N)ccc2o1 | 54 to 56 |
| Nc1ccc(S(=O)(=O)Nc2ccc(Cl)c(C(F)(F)F)c2)cc1 | 144 to 146 |
| O=c1[nH]cnc2scc(-c3ccc(F)cc3)c12 | 231 to 233 |
| O=C1CCNc2ccc(C(=O)O)cc2N1 | 281 to 283 |
| CC(=O)Nc1ccc(F)c(C(=O)O)c1 | 259 to 261 |
| O=C(O)C1(c2cccc(F)c2)CCC1 | 67 to 69 |
| O=c1ccc(=O)n(-c2ccc([N+](=O)[O-])cc2)[nH]1 | 308 to 310 |
| Nc1ccccc1-c1ccc(-c2ccccc2)cc1 | 163 to 165 |
